According to PubChem BioAssay AID330 (DTP/NCI, 2004):
Several values for one entry are separate records, joined by “and”; a condition that tells them apart may be missing. Identical values can stand only once. Inconclusive results and toxic doses are left out. The calls were made as follows: active = survival T/C of 150% or more; inactive = T/C below 125% in these data.

Tested on: P388 leukemia ip, CD2F1 mice, survival T/C
Test: NCI In Vivo Anticancer Drug Screen. Data for tumor model P388 Leukemia (intraperitoneal) in CD2F1 (CDF1) mice
Conditions: endpoint: median survival time, higher = longer survival
Summary of the method: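 Mice carrying the transplanted tumor received test compound or vehicle. Survival was recorded in each group, and the value is the treated-group measurement divided by that of the vehicle-treated control group.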

[1] = dose: 60.0 mg/kg/injection, schedule: Q01DX005 (ip), vehicle: saline with Tween-80
[2] = dose: 120.0 mg/kg/injection, schedule: Q01DX005 (ip), vehicle: saline with Tween-80
[3] = dose: 240.0 mg/kg/injection, schedule: Q01DX005 (ip), vehicle: saline with Tween-80
[4] = dose: 25.0 mg/kg/injection, schedule: Q01DX005 (ip), vehicle: saline with Tween-80
[5] = dose: 50.0 mg/kg/injection, schedule: Q01DX005 (ip), vehicle: saline with Tween-80
[6] = dose: 100.0 mg/kg/injection, schedule: Q01DX005 (ip), vehicle: saline with Tween-80
[7] = dose: 50.0 mg/kg/injection, schedule: Q01DX009 (ip), vehicle: saline with Tween-80
[8] = dose: 100.0 mg/kg/injection, schedule: Q01DX009 (ip), vehicle: saline with Tween-80
[9] = dose: 200.0 mg/kg/injection, schedule: Q01DX009 (ip), vehicle: saline with Tween-80
[10] = dose: 50.0 mg/kg/injection, schedule: Q01DX005 (ip), vehicle: Klucel (hydroxypropylcellulose) (HPC)
[11] = dose: 100.0 mg/kg/injection, schedule: Q01DX005 (ip), vehicle: Klucel (hydroxypropylcellulose) (HPC)
[12] = dose: 200.0 mg/kg/injection, schedule: Q01DX005 (ip), vehicle: Klucel (hydroxypropylcellulose) (HPC)
[13] = dose: 200.0 mg/kg/injection, schedule: Q01DX005 (ip), vehicle: saline with Tween-80

Measured: T/C

COc1cccc(C(c2cc3c(cc2O)OCO3)N2CCOCC2)c1OC (stereo not drawn)
inactive: [1] 119 % of control | [2] 119 % of control | [3] 117 % of control

Clc1ccc2oc(N3CCOCC3)nc2c1
inactive: [1] 103 % of control | [2] 96 % of control | [3] 87 % of control

CC(=O)NC1=C(O)C2C(c3ccc(Cl)cc3)C(C#N)C(=O)N2C1=O (stereo not drawn)
inactive: dose: 100.0 mg/kg/injection, schedule: Q01DX001 (ip), vehicle: saline 100 % of control | dose: 200.0 mg/kg/injection, schedule: Q01DX001 (ip), vehicle: saline 103 % of control | dose: 400.0 mg/kg/injection, schedule: Q01DX001 (ip), vehicle: saline 98 % of control

O=C1CCCN1C1CC2c3ccccc3C1c1cccc[n+]12 (stereo not drawn)
inactive: dose: 5.0 mg/kg/injection, schedule: Q01DX009 (ip), vehicle: saline sonified 100 % of control | dose: 10.0 mg/kg/injection, schedule: Q01DX009 (ip), vehicle: saline sonified 100 % of control | dose: 20.0 mg/kg/injection, schedule: Q01DX009 (ip), vehicle: saline sonified 95 % of control

COc1cc2c(cc1OC)C(=O)Cc1ccc(OC)c(O)c1CN(C)CC2
inactive: dose: 2.25 mg/kg/injection, schedule: Q01DX009 (ip), vehicle: Klucel (hydroxypropylcellulose) (HPC) 111 % of control | dose: 4.5 mg/kg/injection, schedule: Q01DX009 (ip), vehicle: Klucel (hydroxypropylcellulose) (HPC) 108 % of control | dose: 9.0 mg/kg/injection, schedule: Q01DX009 (ip), vehicle: Klucel (hydroxypropylcellulose) (HPC) 118 % of control | dose: 18.0 mg/kg/injection, schedule: Q01DX009 (ip), vehicle: Klucel (hydroxypropylcellulose) (HPC) 108 % of control

COc1ccc2c3c(c4ccccc4c2c1)C(=O)OC3=O
inactive: [4] 87 % of control | [5] 87 % of control | [6] 109 % of control

c1cc2c(cc1CSCc1c(CSCc3ccc4c(c3)OCO4)c(CSCc3ccc4c(c3)OCO4)c(CSCc3ccc4c(c3)OCO4)c(CSCc3ccc4c(c3)OCO4)c1CSCc1ccc3c(c1)OCO3)OCO2
inactive: [7] 100 % of control | [8] 99 % of control | [9] 97 % of control

N=C(N)SCc1csc(N)n1
inactive: dose: 25.0 mg/kg/injection, schedule: Q01DX009 (ip), vehicle: saline 105 % of control | dose: 50.0 mg/kg/injection, schedule: Q01DX009 (ip), vehicle: saline 102 % of control | dose: 100.0 mg/kg/injection, schedule: Q01DX009 (ip), vehicle: saline 109 % of control | dose: 200.0 mg/kg/injection, schedule: Q01DX009 (ip), vehicle: saline 108 % of control

CCCN(CCC)CC(=O)NC1c2ccccc2Oc2ccccc21
inactive: [10] 101 % of control | [11] 101 % of control | [12] 90 % of control

Nc1nc(-c2ccccc2)cc(-c2cc(-c3ccccc3)nc(N)n2)n1
inactive: dose: 60.0 mg/kg/injection, schedule: Q01DX005 (ip), vehicle: saline 100 % of control | dose: 120.0 mg/kg/injection, schedule: Q01DX005 (ip), vehicle: saline 102 % of control | dose: 240.0 mg/kg/injection, schedule: Q01DX005 (ip), vehicle: saline 100 % of control

CCOC(=O)C(N=Nc1ccccc1)/N=N\c1nn[nH]n1 (stereo not drawn)
inactive: dose: 50.0 mg/kg/injection, schedule: Q01DX001 (ip), vehicle: Klucel (hydroxypropylcellulose) (HPC) 91 % of control | dose: 100.0 mg/kg/injection, schedule: Q01DX001 (ip), vehicle: Klucel (hydroxypropylcellulose) (HPC) 91 % of control | dose: 200.0 mg/kg/injection, schedule: Q01DX001 (ip), vehicle: Klucel (hydroxypropylcellulose) (HPC) 91 % of control

CNC(=O)CC(=O)NC
inactive: dose: 100.0 mg/kg/injection, schedule: Q04DX003 (ip), vehicle: suspension in saline 93 % of control | dose: 200.0 mg/kg/injection, schedule: Q04DX003 (ip), vehicle: suspension in saline 100 % of control | dose: 400.0 mg/kg/injection, schedule: Q04DX003 (ip), vehicle: suspension in saline 95 % of control

NNC(=O)c1ccc(-c2ccccc2)cc1
inactive: dose: 6.25 mg/kg/injection, schedule: Q01DX009 (ip), vehicle: Klucel (hydroxypropylcellulose) (HPC) 102 % of control | dose: 12.5 mg/kg/injection, schedule: Q01DX009 (ip), vehicle: Klucel (hydroxypropylcellulose) (HPC) 107 % of control | dose: 25.0 mg/kg/injection, schedule: Q01DX009 (ip), vehicle: Klucel (hydroxypropylcellulose) (HPC) 102 % of control | dose: 50.0 mg/kg/injection, schedule: Q01DX009 (ip), vehicle: Klucel (hydroxypropylcellulose) (HPC) 110 % of control | dose: 100.0 mg/kg/injection, schedule: Q01DX009 (ip), vehicle: Klucel (hydroxypropylcellulose) (HPC) 116 % of control

CCOC(=O)/C=C/C(CO)OC(/C=C/C(=O)OCC)n1cnc2c(N)ncnc21 (stereo not drawn)
inactive: dose: 100.0 mg/kg/injection, schedule: Q04DX002 (ip), vehicle: Klucel (hydroxypropylcellulose) (HPC) 101 % of control | dose: 200.0 mg/kg/injection, schedule: Q04DX002 (ip), vehicle: Klucel (hydroxypropylcellulose) (HPC) 108 % of control | dose: 400.0 mg/kg/injection, schedule: Q04DX002 (ip), vehicle: Klucel (hydroxypropylcellulose) (HPC) 111 % of control

COC1=CC(=O)c2ncc(Cl)cc2C1=O
inactive: dose: 30.0 mg/kg/injection, schedule: Q01DX005 (ip), vehicle: saline with Tween-80 111 % of control | [1] 100 % of control and 93 % of control

CCOC(=O)c1cnc(Sc2ccc([N+](=O)[O-])cc2[N+](=O)[O-])nc1N
inactive: dose: 100.0 mg/kg/injection, schedule: Q04DX003 (ip), vehicle: saline 93 % of control | dose: 200.0 mg/kg/injection, schedule: Q04DX003 (ip), vehicle: saline 100 % of control | dose: 400.0 mg/kg/injection, schedule: Q04DX003 (ip), vehicle: saline 98 % of control

O=C1Oc2ccccc2C(=O)C1=Ic1ccccc1
inactive: [10] 88 % of control | [11] 94 % of control | [12] 95 % of control

COC(=O)c1ccc(O)cc1
inactive: dose: 12.5 mg/kg/injection, schedule: Q01DX005 (ip), vehicle: saline with Tween-80 98 % of control | [4] 99 % of control | [5] 100 % of control | [6] 100 % of control | [13] 105 % of control | dose: 400.0 mg/kg/injection, schedule: Q01DX005 (ip), vehicle: saline with Tween-80 100 % of control

CC(=O)Nc1ccc(S(=O)(=O)Nc2ccc([N+](=O)[O-])cc2)cc1
inactive: dose: 100.0 mg/kg/injection, schedule: Q04DX003 (ip), vehicle: saline with Tween-80 90 % of control | dose: 200.0 mg/kg/injection, schedule: Q04DX003 (ip), vehicle: saline with Tween-80 86 % of control | dose: 400.0 mg/kg/injection, schedule: Q04DX003 (ip), vehicle: saline with Tween-80 100 % of control

CCCS/C(N)=N/N=C/c1ccc([N+](=O)[O-])o1
inactive: dose: 6.25 mg/kg/injection, schedule: Q01DX009 (ip), vehicle: suspension in saline 102 % of control | dose: 12.5 mg/kg/injection, schedule: Q01DX009 (ip), vehicle: suspension in saline 92 % of control | dose: 25.0 mg/kg/injection, schedule: Q01DX009 (ip), vehicle: suspension in saline 91 % of control | dose: 50.0 mg/kg/injection, schedule: Q01DX009 (ip), vehicle: suspension in saline 109 % of control

Cc1ccc2c(c1)NC(c1cccc(N=Cc3cc(Cl)cc(Cl)c3O)c1)c1cccn1-2 (stereo not drawn)
inactive: [7] 86 % of control | [8] 91 % of control | [9] 96 % of control

COc1ccc2c(c1)CCC1C2=CCS1(=O)=O (stereo not drawn)
inactive: [5] 103 % of control | [6] 94 % of control | [13] 92 % of control
